Experimental data: US20030186814A1, “Enhanced herbicide composition” (Valent BioSciences Corporation, priority 2002, published 2003)
Where a name gives a salt, the structure may show the parent alone.

Assays:
tobacco = assay: Phytotoxicity rating after foliar spray, tobacco; assay type: in vivo, Nicotiana tabacum (tobacco); details: alone or with 5 mM NaSA, COC 0.1%, mean rating 1-5, n = 5 plants
Protocol: (§1) In all experiments, deionized ultra-pure water was used in preparing solutions. Spray solutions were used as soon as possible after mixing.
(§2) COC was added to all spray solutions at a rate of 0.10% (v/v). For all treatments containing both an herbicide and a salicylate, these materials were mixed and applied in a single spray solution (commonly known as a tank mix). After spraying, plants were moved to the greenhouse and arranged in a randomized complete block experimental design. Plants were evaluated for phytotoxicity/herbicidal effects after spraying by assessing damage according to the following scale:
(§3) 5=100% leaf area affected (dead)
(§4) All the data were subject to an analysis of variance, and the mean separations were determined with Duncan's multiple range test at α=0.05.

Giant Foxtail = assay: Phytotoxicity rating after foliar spray, Giant Foxtail; assay type: in vivo, Setaria faberi (giant foxtail); details: Table 3; glyphosate 0.2% (v/v), alone or with 5 mM NaSA; COC 0.1%; mean rating 1-5; n = 5 plants
Protocol: as §1, §2, §3, §4

NK S2676 Soybean = assay: Phytotoxicity rating after foliar spray, Roundup Ready soybean; details: Table 5, glyphosate-tolerant crop, n = 4 plants
Protocol: as §1, §2, §3, §4
Roundup Ready crops are tolerant to glyphosate. This tolerance is conferred by genetic modification of the crop species by the insertion of a glyphosate-insensitive EPSP synthase.

Lambsquarters = assay: Phytotoxicity rating after foliar spray, Lambsquarters; assay type: in vivo, Chenopodium album (lambsquarter); details: Table 4, alone or with 5 mM NaSA, COC 0.1%, mean rating 1-5, n = 6 plants
Protocol: as §1, §2, §3, §4

[1] = Table 2, glyphosate or Roundup 0.2% (v/v glyphosate)
[2] = glyphosate 0.1% (v/v) + COC 0.1%, mean rating 1-5

O=C(O)CNCP(=O)(O)O [Glyphosate, N-(phosphonomethyl)glycine, monoisopropylamine salt]
Phytotoxicity at 4d (tobacco; Table 1, glyphosate 0.04%): 1.2 A
Phytotoxicity at 6d (tobacco; Table 1, glyphosate 0.04%): 1.7 BC
Phytotoxicity at 8d (tobacco; Table 1, glyphosate 0.04%): 2 B
Phytotoxicity at 11d (tobacco; Table 1, glyphosate 0.04%): 3.1 B
Phytotoxicity at 14d (tobacco; Table 1, glyphosate 0.04%): 3.6 B
Phytotoxicity at 4d (tobacco; Table 1, glyphosate 0.2% (v/v)): 1.5 B
Phytotoxicity at 6d (tobacco; Table 1, glyphosate 0.2% (v/v)): 2.2 CD
Phytotoxicity at 8d (tobacco; Table 1, glyphosate 0.2% (v/v)): 3.1 D
Phytotoxicity at 11d (tobacco; Table 1, glyphosate 0.2% (v/v)): 4.1 D
Phytotoxicity at 14d (tobacco; Table 1, glyphosate 0.2% (v/v)): 4.9 C
Phytotoxicity at 5f (tobacco; [1]): 1.5 BC
Phytotoxicity at 2d (tobacco; [1]): 1.3 B
Phytotoxicity at 8d (tobacco; [1]): 3.3 C
Phytotoxicity at 13d (tobacco; [1]): 4.9 B
Phytotoxicity at 8d (Giant Foxtail): 3.8 A
Phytoxicity at 6d (Giant Foxtail): 2.0 B
Phytoxicity at 11d (Giant Foxtail): 4.9 B
Phytotoxicity at 1d (NK S2676 Soybean; [2]): 1.6 BC
Phytotoxicity at 4d (NK S2676 Soybean; [2]): 1.8 BC
Phytotoxicity at 6d (NK S2676 Soybean; [2]): 1.9 C
Phytotoxicity at 11d (NK S2676 Soybean; [2]): 1.9 D
Phytotoxicity at 3d (Lambsquarters; glyphosate 0.004%): 1.0 A
Phytotoxicity at 7d (Lambsquarters; glyphosate 0.004%): 1.3 AB
Phytotoxicity at 11d (Lambsquarters; glyphosate 0.004%): 1.3 AB
Phytotoxicity at 3d (Lambsquarters; glyphosate 0.02%): 1.0 A
Phytotoxicity at 7d (Lambsquarters; glyphosate 0.02%): 1.5 ABC
Phytotoxicity at 11d (Lambsquarters; glyphosate 0.02%): 2.1 BC
Phytotoxicity at 3d (Lambsquarters; glyphosate 0.04%): 1.0 A
Phytotoxicity at 7d (Lambsquarters; glyphosate 0.04%): 1.6 BC
Phytotoxicity at 11d (Lambsquarters; glyphosate 0.04%): 2.4 C
Phytotoxicity at 3d (Lambsquarters; glyphosate 0.2% (v/v)): 1.4 BC
Phytotoxicity at 7d (Lambsquarters; glyphosate 0.2% (v/v)): 2.4 D
Phytotoxicity at 11d (Lambsquarters; glyphosate 0.2% (v/v)): 4.0 D

O=C([O-])c1ccccc1O.[Na+] [NaSA, sodium salicylate]
Phytotoxicity at 4d (NK S2676 Soybean; NaSA 5 mM + COC 0.1%, mean rating 1 = no damage to 5 = dead): 1.5 B
